In general, pEC50 refers to −log10 of the EC50, conventionally taken in molar units.

Experiment [1] relates to COX10-deficient fibroblasts. Description: Cell viability by Calcein AM in mitochondrial stressor media. The format is cell-based, human. Particulars: FIG. 2B. As for the experimental part: (§1) Fibroblasts previously derived from four patients with primary mitochondrial disease (Surf1, Complex I, Cox10, Polg), three patients with NGLY1 deficiency and four normal controls were used for the study. All samples were obtained with informed consent and approved by the Stanford IRB. Fibroblasts were maintained in DMEM medium containing 8.3 mM glucose and supplemented with 10% fetal bovine serum (FBS)(Fisher Scientific), 1% Penicillin-Streptomycin (10,000 U/mL)(Life Technologies), 1% glutaMAX (Life Technologies), 1% uridine (5 mg/ml) and 1% pyruvate (11 mg/ml) at 37° C., 5% CO2. For the screening of various compounds, 15×10^3 cells/500 ul media were seeded in quadruplets on 24 well microtiter plates. The following day, the medium was removed, wells washed with PBS and replaced with a mitochondrial stressor media containing DMEM, 1% Penicillin-Streptomycin (10,000 U/mL)(Life Technologies), 10% FCS (Fisher Scientific), 1 mM Galactose (Sigma Aldrich), and 25 μM sodium azide with or without the following compounds: 1 mM AICAR (Medchem Express), 1 mM Metformin (Sigma Aldrich), 100 μM PT1 (Santa Cruz Biotechnology), 100 μ[…] Express). Following treatment with the various compounds, tissue cultures were analyzed for growth, oxygen consumption rate, and ATP levels. Methods: Cell growth was measured by a fluorometric method using Calcein AM (Anaspec). Mitochondrial stressor media was removed, wells washed with PBS and then incubated with 500 ul/well of 800 nM Calcein AM in PBS for 30 min at 37 C, 5% CO2. Cell viability was measured by values obtained using a 485 nm excitation with the Flouroskan Ascent Microplate Fluorometer (Thermo Scientific).

The subject of experiment [2] is POLG-deficient fibroblasts. The experiment is described as above. Type of experiment: cell-based, human. Particulars: FIG. 2D. As for the experimental part: as §1
For experiment [3], the system named is SURF1-deficient fibroblasts. The experiment is described as above. The format is cell-based, human. The following applies: for cellular viability, dose dependent manner: SURF1 deficient fibroblasts, FIG. 2F. As for the experimental part: as §1
The next experiment concerns CI-deficient fibroblasts. The description is as above. The format is cell-based, human. The following applies: FIG. 2C. As for the experimental part: Fibroblasts previously derived from four patients with primary mitochondrial disease (Surf1, Complex I, Cox10, Polg), three patients with NGLY1 deficiency and four normal controls were used for the study. All samples were obtained with informed consent and approved by the Stanford IRB. Fibroblasts were maintained in DMEM medium containing 8.3 mM glucose and supplemented with 10% fetal bovine serum (FBS)(Fisher Scientific), 1% Penicillin-Streptomycin (10,000 U/mL)(Life Technologies), 1% glutaMAX (Life Technologies), 1% uridine (5 mg/ml) and 1% pyruvate (11 mg/ml) at 37° C., 5% CO2.
For the screening of various compounds, 15×10^3 cells/500 ul media were seeded in quadruplets on 24 well microtiter plates. The following day, the medium was removed, wells washed with PBS and replaced with a mitochondrial stressor media containing DMEM, 1% Penicillin-Streptomycin (10,000 U/mL)(Life Technologies), 10% FCS (Fisher Scientific), 1 mM Galactose (Sigma Aldrich), and 25 μM sodium azide with or without the following compounds: 1 mM AICAR (Medchem Express), 1 mM Metformin (Sigma Aldrich), 100 μM PT1 (Santa Cruz Biotechnology), 100 μM A-769662 (Medchem Express), 100 μM C24 (Medchem Express). Following treatment with the various compounds, tissue cultures were analyzed for growth, oxygen consumption rate, and ATP levels.
Methods: Cell growth was measured by a fluorometric method using Calcein AM (Anaspec). Mitochondrial stressor media was removed, wells washed with PBS and then incubated with 500 ul/well of 800 nM Calcein AM in PBS for 30 min at 37 C, 5% CO2. Cell viability was measured by values obtained using a 485 nm excitation with the Flouroskan Ascent Microplate Fluorometer (Thermo Scientific).

The test system of experiment [4] is phosphorylated ACC (pACC). Description: pACC western blot in mitochondrial-defective patient cells. Type of experiment: cell-based, human. The following applies: mitochondrial-defective patient cells vs DMSO; FIG. 16A. For orientation: Immunoblotting shows a protein as a band on a membrane.
Another experiment has as its system AMPK. Description: AMPK activity used in determining EC50 (FIG. 16B). The format is biochemical.
In experiment [5] the test system is SURF1-deficient fibroblasts. Description: Cellular morphology by phase-contrast microscopy. Type of experiment: cell-based, human. Particulars: vs DMSO. From the text:
Fibroblasts in tissue culture were visualized by phase-contrast microscopy with a Leica DM IRB microscope at ×10 magnification, and images were taken with the Hamamatsu ORCA-ER camera.

Experiment [6] deals with Sco2 deficient mice. Description: Ocular structure by optical coherence tomography (OCT) in Sco2 mice. The format is in vivo. Particulars: for thickness of the retinal nerve fiber layer (RNFL): 10 mg/kg once daily oral gavage. An excerpt: (§2) Methods: To examine the effects of AMPK agonists on in vivo systems with mitochondrial dysfunction, MK8722 was used to treat a mouse model of mitochondrial disease. These mice have mitochondrial Complex IV deficiency caused by deficient cytochrome C oxidase assembly protein, SCO2, and harbor a Sco2 knock-out (KO) allele and a Sco2 knock-in (KI) allele expressing an E→K mutation at position 129 (E129K). The E129K mutation corresponds to the E140K mutation found in almost all human SCO2-mutated patients. (See e.g., Yang et al, Analysis of mouse models of cytochrome c oxidase deficiency owing to mutations in Sco2. Hum Mol Genet. 2010 Jan. 1; 19(1):170-80; the disclosure of which is incorporated by reference herein in its entirety.) The predominant phenotype of Sco2 deficient mice is reduced locomotor function and ocular defects, both common findings in patients with primary mitochondrial disease. The Sco2 mice were grouped into four treatment groups: Sco2 KI/KO+MK8722, Sco2 KI/KO+DMSO (vehicle), Control KI/WT+MK8722, Control KI/WT+DMSO with 7-9 mice per group. 1.5-month old Sco2 mice were treated once daily by oral gavage with MK8722 (10 mg/kg) or vehicle (DMSO) for 14 weeks. Locomotor function was evaluated using the activity chamber, rotarod, and hanging-wire tests and ocular structure using optical coherence tomography (OCT).

Experiment [7] deals with Sco2 deficient mice. Description: Activity chamber test in Sco2 mice. The format is in vivo.
Description: as §2

Experiment [8] deals with Sco2 deficient mice. Description: Rotarod running test in Sco2 mice. The format is in vivo. The following applies: KO/KI mice; vehicle 176.1 sec.
Description: as §2

Experiment [9] concerns Sco2 deficient mice. Description: Hanging wire test in Sco2 mice. The format is in vivo. Particulars: KO/KI mice; vehicle 173.2 sec.
Description: as §2

Experiment [10] relates to mitochondrial cytochrome C oxidase (CytoC) and succinate dehydrogenase (SDH) activities. Description: Histological staining of skeletal muscle for mitochondrial enzyme activities. Type of experiment: in vivo. Particulars: Sco2 KI/KO mice vs vehicle, FIG. 11D.
Description: as §2

A further experiment concerns glycogen content. Description: Histological assessment of glycogen in skeletal muscle. The format is in vivo. The following applies: Sco2 KI/KO mice vs untreated; FIG. 11E.
Description: as §2

Experiment [11] relates to phosphorylated ACC (pACC). Description: pACC western blot in skeletal muscle of Sco2 KI/KO mice. The format is in vivo. Particulars: KI/KO mice vs vehicle; FIGS. 11F-11G.
Description: as §2

pEC50: −log10 of the molar value. “Also recorded” adds a separate entry of the source.

Turning to `NC(=O)c1ncn([C@@H]2O[C@H](CO)[C@@H](O)[C@H]2O)c1N` [AICAR], the survival / viability result (in experiment [1]; in experiment [2]; in the experiment on CI-deficient fibroblasts) was “does not improve cell viability; also recorded: did not improve survival” each time. The “mean cell survival increased” value in experiment [3] (SURF1 cells, vs untreated control treated with PBS) is recorded as 57%.

Turning to `N#Cc1c(O)c2c(-c3ccc(-c4ccccc4O)cc3)csc2[nH]c1=O` [Compound A-769662], the survival / viability result (in [2]; with CI-deficient fibroblasts) was “improved survival” in each case.

For `O=C(O)c1c[nH]c2cc(Cl)c(-c3ccc(C4(O)CCC4)s3)cc12` [EV8016, 6-chloro-5-(5-(1-hydroxycyclobutyl)thiophen-2-yl)-1H-indole-3-carboxylic acid], in experiment [4], the “ACC phosphorylation (AMPK activation)” value is on record as “capable of activating AMPK”. Further, the negative logarithm of the EC50 (pEC50) in the experiment on AMPK is 6.63.

For the molecule `O[C@@H]1CO[C@H]2[C@@H]1OC[C@H]2Oc1nc2nc(-c3ccc(-c4ccccc4)cc3)c(Cl)cc2[nH]1` [MK-8722], in [3], the “cellular viability, dose dependent manner” value (“cellular viability” below) is recorded as “increasing levels of cellular viability; also recorded: improved the viability”. The cellular morphology entry in experiment [5] was “improved cellular morphology; also recorded: improved cell morphology”. For the same molecule, the “thickness of the retinal nerve fiber layer (RNFL)” value in the experiment on Sco2 deficient mice [6] (KI/WT mice, vehicle 72.7 μm) stood at 74.7 μm; with Sco2 deficient mice [6] (Sco2 KI/KO mice, vehicle 74.1 μm) it was 77 μm. Moreover, in the experiment on Sco2 deficient mice [6] (treated vs vehicle (VEH) mice, FIG. 9E), the “retinal thickness, degradation” value was “less degradation”. In the experiment with Sco2 deficient mice [7] (KO/KI mice, 8 weeks of treatment, vehicle 1516.7 cm), the “distance moved in the activity chamber” value came to 2337.8 cm. For the same molecule, in the experiment with Sco2 deficient mice [7] (knock-out/knock-in mice, FIG. 11A), the “activity in activity chamber” value is given as “returns to levels comparable with knock-in/wild-type mice”. For the same molecule, the rotarod running time in the experiment with Sco2 deficient mice [8] was determined as 248.1 s. The hanging wire time with Sco2 deficient mice [9] worked out at 312.5 s. In addition, in experiment [10], the “intensity of histological stains indicative of CytoC and SDH activities” value is “increased”. Also, in the experiment on glycogen content, the “glycogen content of skeletal muscle” value is listed as “increased glycogen content”. Also, the “ACC phosphorylation in skeletal muscle” value in experiment [11] is listed as “increased phosphorylation of ACC; also recorded: increase in ACC phosphorylation”.

As for `OCC1(c2ccc(-c3cc4nc(O[C@@H]5CO[C@H]6[C@@H]5OC[C@H]6O)[nH]c4cc3Cl)cc2)CC1` [PF-739], in experiment [3], the “cellular viability” value is recorded as “increasing levels of cellular viability; also recorded: improved the viability”. Moreover, the cellular morphology entry in experiment [5] is on record as “improved cellular morphology; also recorded: improved cell morphology”.

For `O=C(O)c1c[nH]c2cc(Cl)c(-c3ccc(C4(O)CCC4)cc3)cc12` [PF-06409577], the “cellular viability” value is reported as “increasing levels of cellular viability” in [3] and “improved the viability” in [3] (listed as PF-04609577). Further, the cellular morphology result in experiment [5] is reported as “improved cellular morphology”; in [5] (listed as PF-04609577), “improved cell morphology”. The pEC50 in the experiment with AMPK is […].

Take `Cc1ccc(OCCSc2ncccn2)c(Br)c1` [ZLN024]: in the experiment on CI-deficient fibroblasts, the survival / viability entry is given as “improved survival”.

The values are drawn from patent US12377077B2, “Methods and formulations to treat mitochondrial dysfunction” (The Board of Trustees of the Leland Stanford Junior …, priority 2018, dated 2025).
